Values of other authors as cited in US10485764B2, “Lyophilized pharmaceutical compositions” (Otsuka Pharmaceutical Co., Ltd., priority 2015, dated 2019).

System: HDAC
Conditions: in vitro or in vivo, from literature

For depudecin, the HDAC inhibition is given as “micromolar concentrations”.
For trichostatin A [TSA], the HDAC inhibition is given as “potent inhibitor of mammalian HDAC”.
In the case of `C/C=C1\NC(=O)[C@H]2CSSCC/C=C/[C@H](CC(=O)N[C@H](C(C)C)C(=O)N2)OC(=O)[C@H](C(C)C)NC1=O` [FR901228], the HDAC inhibition is listed as “micromolar concentrations”.
In the case of `O=C(/C=C/c1cccc(C(=O)NO)c1)NO` [CBHA, m-carboxy-cinnamic acid bishydroxamic acid], the HDAC inhibition is listed as “micromolar concentration or lower”.
